This note sets out measurements from PubChem BioAssay (NCI).

Structures are written as SMILES.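 Five compound concentrations were applied to cells in 96-well plates for 48 hours; endpoints were derived by simple linear interpolation of the resulting dose-response curve. TGI is the concentration that stops growth completely.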 Where a SMILES comes first, the peptide text is derived from it. [ ]: non-standard residue; d: D form. The star is where a group is joined. X28 = COC1=CC(=O)N(C(=O)[C@@H](O*)C(C)C)[C@H]1Cc1ccccc1; NMeL = CN[C@@H](CC(C)C)C(=O)O; Cbz = O=C(OCc1ccccc1)*

Test systems include KM12 colon; SNB-75 CNS; HS 578T breast; M14 melanoma; MDA-N; HT29 colon; HOP-62 NSCLC; CAKI-1 renal; CCRF-CEM leukemia; EKVX NSCLC; NCI-H23 lung.
Holding throughout (assay): growth of human tumour cells (NCI), 48 h

For the compound `COC1=CC(=O)N(C(=O)[C@@H](OC(=O)[C@@H]2CCCN2C(=O)[C@@H]2CCCN2C(=O)[C@H](CC(C)C)N(C)C(=O)[C@@H](NC(=O)[C@@H](NC(=O)OCc2ccccc2)C(C)C)C(C)C)C(C)C)[C@H]1Cc1ccccc1` (Cbz-VV[NMeL]PP-X28), the TGI in the experiment with KM12 colon is greater than 100 µM; in the experiment on SNB-75 CNS it was 9.27 µM; in the experiment with HS 578T breast it was greater than 100 µM; with M14 melanoma, greater than 100 µM; in the experiment on MDA-N, greater than 100 µM; with HT29 colon it was greater than 100 µM. Moreover, the TGI in the experiment with HOP-62 NSCLC, with CAKI-1 renal, in the experiment on CCRF-CEM leukemia, in the experiment on EKVX NSCLC and with NCI-H23 lung was greater than 100 µM throughout.

With `Cc1cc2nc(NS(=O)(=O)c3cc(C)c(Cl)cc3S)[nH]c2cc1C`, the TGI with KM12 colon, in the experiment with SNB-75 CNS, in the experiment on HS 578T breast, in the experiment on M14 melanoma, in the experiment on MDA-N and with HT29 colon was greater than 100 µM throughout. For the same compound, the TGI with HOP-62 NSCLC was greater than 100 µM; with CAKI-1 renal, greater than 100 µM; in the experiment on CCRF-CEM leukemia, 81.8 µM; in the experiment on EKVX NSCLC, greater than 100 µM; in the experiment on NCI-H23 lung, greater than 100 µM.

With `O=S(=O)(Nc1nc(-c2cc(O)c(O)c(O)c2)cs1)c1ccc(Cl)cc1Cl`, the TGI was 31.1 µM in the experiment on KM12 colon; 77.6 µM in the experiment with SNB-75 CNS; 53.6 µM in the experiment on HS 578T breast; 50.6 µM with M14 melanoma; 73.9 µM in the experiment on MDA-N; 51.2 µM in the experiment with HT29 colon. In addition, the TGI with HOP-62 NSCLC amounted to 35.1 µM; with CAKI-1 renal it was 35.5 µM; in the experiment with CCRF-CEM leukemia, 41.5 µM; in the experiment on EKVX NSCLC, 33.5 µM; in the experiment with NCI-H23 lung it was 74.1 µM.

As to `COC(=O)C1(Cc2ccc3c(c2)CCC3)Cc2cc3c(cc2C1=O)CCC3` (configuration not stated), the TGI with KM12 colon, in the experiment on SNB-75 CNS, with HS 578T breast, in the experiment on M14 melanoma, in the experiment with MDA-N and in the experiment on HT29 colon was greater than 46.4 µM in each case. Also, the TGI was greater than 46.4 µM with HOP-62 NSCLC; greater than 31.6 µM in the experiment on CAKI-1 renal; greater than 46.4 µM in the experiment with CCRF-CEM leukemia; greater than 46.4 µM in the experiment with EKVX NSCLC; greater than 46.4 µM with NCI-H23 lung.

In the case of `O=C(O)C1(CC(CCCN2CCCCC2)c2ccccc2)CCCC1` (configuration not stated), the TGI with KM12 colon, in the experiment on SNB-75 CNS, with HS 578T breast, with M14 melanoma, in the experiment on MDA-N and with HT29 colon was greater than 100 µM each time. Besides, the TGI in the experiment with HOP-62 NSCLC, in the experiment with CAKI-1 renal, in the experiment with CCRF-CEM leukemia, with EKVX NSCLC and in the experiment on NCI-H23 lung was greater than 100 µM throughout.

In the case of `C/C=C/COc1cc(NC(=S)c2ccoc2C)ccc1OC`, the TGI was greater than 100 µM in the experiment on KM12 colon; greater than 100 µM in the experiment on SNB-75 CNS; 90.7 µM in the experiment on HS 578T breast; greater than 100 µM with M14 melanoma; greater than 100 µM in the experiment with MDA-N; greater than 100 µM with HT29 colon. In addition, the TGI in the experiment on HOP-62 NSCLC, with CAKI-1 renal, in the experiment with CCRF-CEM leukemia, in the experiment on EKVX NSCLC and in the experiment with NCI-H23 lung was greater than 100 µM throughout.

Take `CCOC(=O)c1ccc2c(=O)n3c(C(=O)OCC)ccc3c(=O)n12`: the TGI with KM12 colon, in the experiment with SNB-75 CNS, in the experiment on HS 578T breast, in the experiment with M14 melanoma, with MDA-N and in the experiment with HT29 colon was greater than 100 µM throughout. In addition, the TGI in the experiment with HOP-62 NSCLC, in the experiment with CAKI-1 renal, in the experiment on CCRF-CEM leukemia, with EKVX NSCLC and in the experiment with NCI-H23 lung was greater than 100 µM in each case.

As to `Nc1nc(SCc2ccccc2[N+](=O)[O-])c2[nH]cnc2n1`, the TGI in the experiment on KM12 colon was greater than 100 µM; with SNB-75 CNS it was greater than 70.4 µM; in the experiment with HS 578T breast it was 24.7 µM; in the experiment on M14 melanoma, greater than 100 µM; in the experiment on MDA-N, greater than 100 µM; in the experiment on HT29 colon it was greater than 100 µM. For the same compound, the TGI with HOP-62 NSCLC is greater than 100 µM; with CAKI-1 renal, greater than 100 µM; with CCRF-CEM leukemia, greater than 94.5 µM; with EKVX NSCLC, greater than 100 µM; with NCI-H23 lung it was greater than 100 µM.

Turning to `CC(Nc1cc(=O)n(C)c(=O)[nH]1)c1ccccc1` (configuration not stated), the TGI in the experiment with KM12 colon, in the experiment with SNB-75 CNS, in the experiment with HS 578T breast, in the experiment on M14 melanoma, in the experiment with MDA-N and with HT29 colon was greater than 100 µM each time. Further, the TGI in the experiment on HOP-62 NSCLC, in the experiment with CAKI-1 renal, with CCRF-CEM leukemia, with EKVX NSCLC and with NCI-H23 lung was greater than 100 µM each time.

For `CN(c1ccccc1Cl)S(=O)(=O)c1ccccc1`, the TGI in the experiment on KM12 colon, in the experiment with SNB-75 CNS, in the experiment on HS 578T breast, with M14 melanoma, in the experiment on MDA-N and with HT29 colon was greater than 100 µM in each case. Moreover, the TGI with HOP-62 NSCLC, with CAKI-1 renal, with CCRF-CEM leukemia, in the experiment with EKVX NSCLC and in the experiment with NCI-H23 lung was greater than 100 µM in each case.

Consider `COC(=O)Nc1nc2ccc(NS(=O)(=O)c3ccc(F)cc3)cc2[nH]1`, for which the TGI is 74.7 µM in the experiment with KM12 colon; 70.1 µM in the experiment with SNB-75 CNS; 9.66 µM in the experiment on HS 578T breast; greater than 100 µM in the experiment with M14 melanoma; 7.45 µM in the experiment on MDA-N; 37.4 µM in the experiment on HT29 colon. Besides, the TGI with HOP-62 NSCLC, with CAKI-1 renal, in the experiment with CCRF-CEM leukemia, in the experiment on EKVX NSCLC and in the experiment with NCI-H23 lung was greater than 100 µM throughout.

On to `CCOC(=O)C1CCCC1S(=O)(=O)c1ccc(C)cc1` (configuration not stated), for which the TGI in the experiment with KM12 colon, in the experiment with SNB-75 CNS, in the experiment with HS 578T breast, in the experiment with M14 melanoma, in the experiment on MDA-N and in the experiment with HT29 colon was greater than 100 µM in each case. The TGI in the experiment with HOP-62 NSCLC, with CAKI-1 renal, in the experiment on CCRF-CEM leukemia, with EKVX NSCLC and with NCI-H23 lung was greater than 100 µM each time.
